Measurements as given in ChEMBL document CHEMBL5608163, “Structure modification of anoplin for fighting resistant bacteria” (Eur J Med Chem, 2024).
Converted amounts (≈) assume the structure as drawn. Numbered stars: 1 amine (or outer) side, 2 acyl side, 3 side chain; on linkers, the order of the positions; unused ones are H or OH. Square brackets hold non-standard residues; d marks the D form. Peptide text beside a SMILES is read from it. NCyclohexylmethylGly = O=C(O)CNCC1CCCCC1; X2 = CCC(C)N(CC(=O)[*:2])[*:1]; N(iPr)Gly = CC(C)NCC(=O)O; Nleu = CC(C)CNCC(=O)O; βAla = NCCC(=O)O

Columns and labels:
Erythrocyte [1] = experiment: Hemolytic activity in mouse RBC; type: toxicity, cell-based
Escherichia coli [2] = experiment: Antimicrobial activity against Escherichia coli assessed as reduction in microbial growth by broth micro-dilution method; type: functional
Staphylococcus aureus [3] = experiment: Antimicrobial activity against Staphylococcus aureus assessed as reduction in microbial growth by broth microdilution method; type: functional
Staphylococcus aureus [4] = experiment: Antibacterial activity against Staphylococcus aureus ATCC 25923 assessed as reduction in bacterial cell growth incubated for 18 hrs by two fold serial microdilution method; type: functional
Pseudomonas aeruginosa = experiment: Antibacterial activity against Pseudomonas aeruginosa ATCC 27853 assessed as reduction in bacterial cell growth incubated for 18 hrs by two fold serial microdilution method; type: functional
Acinetobacter baumannii = experiment: Antibacterial activity against Acinetobacter baumannii ATCC 19606 assessed as inhibition in bacterial growth incubated for 20 to 24 hrs by CLSI based broth microdilution method; type: functional; conditions: time 20-24 hrs
Escherichia coli [5] = experiment: Antibacterial activity against Escherichia coli ATCC 25922 assessed as reduction in bacterial cell growth incubated for 18 hrs by two fold serial microdilution method; type: functional
Klebsiella pneumoniae = experiment: Antibacterial activity against Klebsiella pneumoniae ATCC 700603 assessed as reduction in bacterial cell growth incubated for 18 hrs by two fold serial microdilution method; type: functional
[6] = system: Staphylococcus epidermidis; experiment: Antibacterial activity against Staphylococcus epidermidis ATCC 12228 assessed as reduction in bacterial cell growth incubated for 18 hrs by two fold serial microdilution method; type: functional
Erythrocyte [7] = experiment: Hemolytic activity in mouse Red blood cells incubated for 1 hr; type: toxicity, cell-based

Compound | MIC (Escherichia coli [2]) [µM] | MIC (Staphylococcus aureus [3]) [µM] | MIC (Staphylococcus aureus [4]) [µM] | MIC (Pseudomonas aeruginosa) [µM] | MIC (Acinetobacter baumannii) [µM] | MIC (Escherichia coli [5]) [µM] | MIC (Klebsiella pneumoniae) [µM] | MIC [6] [µM] | HC10 (Erythrocyte [1]) [µM] | HC10 (Erythrocyte [7]) [µM]
CC[C@H](C)[C@H](NC(=O)[C@H](CCCNC(=N)N)NC(=O)[C@H](CCCCN)NC(=O)[C@H](CC(C)C)NC(=O)[C@H](CC(C)C)NC(=O)CNCC1CCCCC1)C(=O)N[C@@H](CCCCN)C(=O)N[C@H](C(=O)N[C@@H](CC(C)C)C(=O)N[C@@H](CC(C)C)C(N)=O)[C@@H](C)O (H-[NCyclohexylmethylGly]LLKRIKTLL-NH2) | 25 | 50 |  |  |  |  |  |  | > 50 | 
CC[C@H](C)[C@H](NC(=O)[C@H](CCCNC(=N)N)NC(=O)[C@H](CCCCN)NC(=O)[C@H](CC(C)C)NC(=O)[C@H](CC(C)C)NC(=O)CNC(C)C)C(=O)N[C@@H](CCCCN)C(=O)N[C@H](C(=O)N[C@@H](CC(C)C)C(=O)N[C@@H](CC(C)C)C(N)=O)[C@@H](C)O (H-[N(iPr)Gly]LLKRIKTLL-NH2) | > 100 | > 100 |  |  |  |  |  |  | > 50 | 
CCC(C)NCC(=O)N[C@@H](CC(C)C)C(=O)N[C@@H](CC(C)C)C(=O)N[C@@H](CCCCN)C(=O)N[C@@H](CCCNC(=N)N)C(=O)N[C@H](C(=O)N[C@@H](CCCCN)C(=O)N[C@H](C(=O)N[C@@H](CC(C)C)C(=O)N[C@@H](CC(C)C)C(N)=O)[C@@H](C)O)[C@@H](C)CC (some centres not stated) (H-[X2]LLKRIKTLL-NH2) | > 100 | > 100 |  |  |  |  |  |  | > 50 | 
CC[C@H](C)[C@H](NC(=O)[C@H](CCCNC(=N)N)NC(=O)[C@H](CCCCN)NC(=O)[C@H](CC(C)C)NC(=O)[C@H](CC(C)C)NC(=O)CNCC(C)C)C(=O)N[C@@H](CCCCN)C(=O)N[C@H](C(=O)N[C@@H](CC(C)C)C(=O)N[C@@H](CC(C)C)C(N)=O)[C@@H](C)O (H-[Nleu]LLKRIKTLL-NH2) | > 100 | > 100 |  |  |  |  |  |  | > 50 | 

The next lines start with results.

MIC (Escherichia coli [2]) [µM] | MIC (Staphylococcus aureus [3]) [µM] | MIC (Staphylococcus aureus [4]) [µM] | MIC (Pseudomonas aeruginosa) [µM] | MIC (Acinetobacter baumannii) [µM] | MIC (Escherichia coli [5]) [µM] | MIC (Klebsiella pneumoniae) [µM] | MIC [6] [µM] | Compound | HC10 (Erythrocyte [1]) [µM] | HC10 (Erythrocyte [7]) [µM]
 |  | > 128 | 32 (≈ 35.6 µg/mL) | > 128 | > 128 | > 128 | > 128 | CC[C@H](C)[C@H](NC(=O)[C@H](CCCNC(=N)N)NC(=O)[C@H](CCCCN)NC(=O)CCNC(=O)[C@H](CC(C)C)NC(=O)CN)C(=O)N[C@@H](CCCCN)C(=O)N[C@H](C(=O)N[C@@H](CC(C)C)C(=O)N[C@@H](CC(C)C)C(N)=O)[C@@H](C)O (H-GL[βAla]KRIKTLL-NH2) |  | > 256
 |  | 128 (≈ 144 µg/mL) | 4 (≈ 4.49 µg/mL) | > 128 | 32 (≈ 36 µg/mL) | 128 (≈ 144 µg/mL) | 16 (≈ 18 µg/mL) | CC[C@H](C)[C@H](NC(=O)[C@H](CCCNC(=N)N)NC(=O)[C@H](CCCCN)NC(=O)[C@H](CC(C)C)NC(=O)[C@H](CC(C)C)NC(=O)CN)C(=O)N[C@@H](CCCCN)C(=O)NCCC(=O)N[C@@H](CC(C)C)C(=O)N[C@@H](CC(C)C)C(N)=O (H-GLLKRIK[βAla]LL-NH2) |  | > 256
 |  | > 128 | > 128 | > 128 | > 128 | > 128 | > 128 | CC(C)C[C@H](NC(=O)[C@H](CC(C)C)NC(=O)[C@@H](NC(=O)[C@H](CCCCN)NC(=O)CCNC(=O)[C@H](CCCNC(=N)N)NC(=O)[C@H](CCCCN)NC(=O)[C@H](CC(C)C)NC(=O)[C@H](CC(C)C)NC(=O)CN)[C@@H](C)O)C(N)=O (H-GLLKR[βAla]KTLL-NH2) |  | > 256
 |  | 64 (≈ 70.2 µg/mL) | 32 (≈ 35.1 µg/mL) | > 128 | 64 (≈ 70.2 µg/mL) | 128 (≈ 140 µg/mL) | 32 (≈ 35.1 µg/mL) | CC[C@H](C)[C@H](NC(=O)[C@H](CCCNC(=N)N)NC(=O)[C@H](CCCCN)NC(=O)[C@H](CC(C)C)NC(=O)[C@H](CC(C)C)NC(=O)CN)C(=O)NCCC(=O)N[C@H](C(=O)N[C@@H](CC(C)C)C(=O)N[C@@H](CC(C)C)C(N)=O)[C@@H](C)O (H-GLLKRI[βAla]TLL-NH2) |  | > 256
 |  | 128 (≈ 149 µg/mL) | 8 (≈ 9.34 µg/mL) | 128 (≈ 149 µg/mL) | 32 (≈ 37.4 µg/mL) | 128 (≈ 149 µg/mL) | 8 (≈ 9.34 µg/mL) | CC[C@H](C)[C@H](NC(=O)[C@H](CCCNC(=N)N)NC(=O)[C@H](CCCCN)NC(=O)[C@H](CC(C)C)NC(=O)[C@H](CC(C)C)NC(=O)CCN)C(=O)N[C@@H](CCCCN)C(=O)N[C@H](C(=O)N[C@@H](CC(C)C)C(=O)N[C@@H](CC(C)C)C(N)=O)[C@@H](C)O (H-[βAla]LLKRIKTLL-NH2) |  | > 256
